Measurements reported in paper PMC9116245, “New 1,2,3-triazole linked ciprofloxacin-chalcones induce DNA damage by inhibiting human topoisomerase I& II and tubulin polymerization” (Journal of Enzyme Inhibition and Medicinal Chemistry, 2022).

What was measured:
Human topoisomerase I = target: T1, Human topoisomerase I (Homo sapiens, UniProt P11387); test: DNA relaxation assay (gel electrophoresis); assay type: biochemical; settings: compounds at their IC50 values
T1 construct: purchased Topogen Inc., USA TG-1015
T1 sequence (P11387 1-765): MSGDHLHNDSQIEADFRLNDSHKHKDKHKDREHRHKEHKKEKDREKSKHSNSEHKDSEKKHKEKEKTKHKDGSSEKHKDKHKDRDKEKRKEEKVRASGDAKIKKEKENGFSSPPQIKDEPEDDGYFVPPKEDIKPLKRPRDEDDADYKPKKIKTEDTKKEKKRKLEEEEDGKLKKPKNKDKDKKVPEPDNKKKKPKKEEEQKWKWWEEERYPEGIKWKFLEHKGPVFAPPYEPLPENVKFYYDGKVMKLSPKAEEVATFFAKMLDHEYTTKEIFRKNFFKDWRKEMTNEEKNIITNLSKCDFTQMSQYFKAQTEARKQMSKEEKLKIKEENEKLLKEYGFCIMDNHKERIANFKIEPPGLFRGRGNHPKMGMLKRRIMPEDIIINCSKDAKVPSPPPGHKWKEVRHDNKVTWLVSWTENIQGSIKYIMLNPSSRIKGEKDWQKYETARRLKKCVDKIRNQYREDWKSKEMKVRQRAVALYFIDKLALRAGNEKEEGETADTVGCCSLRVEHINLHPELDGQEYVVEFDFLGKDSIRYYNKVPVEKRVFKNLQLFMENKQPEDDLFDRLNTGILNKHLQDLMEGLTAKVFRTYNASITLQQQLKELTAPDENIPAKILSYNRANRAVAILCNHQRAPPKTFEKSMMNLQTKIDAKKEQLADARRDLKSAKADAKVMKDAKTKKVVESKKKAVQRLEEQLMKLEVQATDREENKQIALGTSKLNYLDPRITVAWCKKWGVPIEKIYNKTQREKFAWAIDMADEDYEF
Experimental: Based on our design, we hypothesised that the new CP hybrids 4a-j could act as multi-target ligands that can block the catalytic activity of topoisomerases I (Topo-I), topoisomerases (Topo-II), and inhibit tubulin polymerisation as possible targets for the anti-proliferative activity. First, the Topo-I activity was tested by the DNA relaxation assay. The supercoiled plasmid has been utilised as a substrate in the relaxation assay to study the inhibition of DNA Topo-I activity. […] Two different assays were used to examine the inhibitory activity of IC50 of the CP hybrids against Human topoisomerase I. Firstly; Gel electrophoresis-based assay (DNA relaxation assay) was performed following the manufacturer's protocol (TG-1015, Topogen Inc., USA). Secondly, the inhibitory activity of compounds 4a, 4b, 4e, 4i, 4j, and camptothecin to human topoisomerase I was analysed by Human DNA Topoisomerase I Assay Kit (ProFoldin, Hudson, MA, USA) with recombinant human DNA topoisomerase I (Sigma-Aldrich) according to the manufacturer’s protocol.

Topo IIα = target: T2, Topo IIα (Homo sapiens, UniProt P11388); test: Human Topoisomerase II assay kit (TG1001); assay type: biochemical; settings: 10 µM
T2 construct: purchased Topogen Inc. TG1001
T2 sequence (P11388 whole entry): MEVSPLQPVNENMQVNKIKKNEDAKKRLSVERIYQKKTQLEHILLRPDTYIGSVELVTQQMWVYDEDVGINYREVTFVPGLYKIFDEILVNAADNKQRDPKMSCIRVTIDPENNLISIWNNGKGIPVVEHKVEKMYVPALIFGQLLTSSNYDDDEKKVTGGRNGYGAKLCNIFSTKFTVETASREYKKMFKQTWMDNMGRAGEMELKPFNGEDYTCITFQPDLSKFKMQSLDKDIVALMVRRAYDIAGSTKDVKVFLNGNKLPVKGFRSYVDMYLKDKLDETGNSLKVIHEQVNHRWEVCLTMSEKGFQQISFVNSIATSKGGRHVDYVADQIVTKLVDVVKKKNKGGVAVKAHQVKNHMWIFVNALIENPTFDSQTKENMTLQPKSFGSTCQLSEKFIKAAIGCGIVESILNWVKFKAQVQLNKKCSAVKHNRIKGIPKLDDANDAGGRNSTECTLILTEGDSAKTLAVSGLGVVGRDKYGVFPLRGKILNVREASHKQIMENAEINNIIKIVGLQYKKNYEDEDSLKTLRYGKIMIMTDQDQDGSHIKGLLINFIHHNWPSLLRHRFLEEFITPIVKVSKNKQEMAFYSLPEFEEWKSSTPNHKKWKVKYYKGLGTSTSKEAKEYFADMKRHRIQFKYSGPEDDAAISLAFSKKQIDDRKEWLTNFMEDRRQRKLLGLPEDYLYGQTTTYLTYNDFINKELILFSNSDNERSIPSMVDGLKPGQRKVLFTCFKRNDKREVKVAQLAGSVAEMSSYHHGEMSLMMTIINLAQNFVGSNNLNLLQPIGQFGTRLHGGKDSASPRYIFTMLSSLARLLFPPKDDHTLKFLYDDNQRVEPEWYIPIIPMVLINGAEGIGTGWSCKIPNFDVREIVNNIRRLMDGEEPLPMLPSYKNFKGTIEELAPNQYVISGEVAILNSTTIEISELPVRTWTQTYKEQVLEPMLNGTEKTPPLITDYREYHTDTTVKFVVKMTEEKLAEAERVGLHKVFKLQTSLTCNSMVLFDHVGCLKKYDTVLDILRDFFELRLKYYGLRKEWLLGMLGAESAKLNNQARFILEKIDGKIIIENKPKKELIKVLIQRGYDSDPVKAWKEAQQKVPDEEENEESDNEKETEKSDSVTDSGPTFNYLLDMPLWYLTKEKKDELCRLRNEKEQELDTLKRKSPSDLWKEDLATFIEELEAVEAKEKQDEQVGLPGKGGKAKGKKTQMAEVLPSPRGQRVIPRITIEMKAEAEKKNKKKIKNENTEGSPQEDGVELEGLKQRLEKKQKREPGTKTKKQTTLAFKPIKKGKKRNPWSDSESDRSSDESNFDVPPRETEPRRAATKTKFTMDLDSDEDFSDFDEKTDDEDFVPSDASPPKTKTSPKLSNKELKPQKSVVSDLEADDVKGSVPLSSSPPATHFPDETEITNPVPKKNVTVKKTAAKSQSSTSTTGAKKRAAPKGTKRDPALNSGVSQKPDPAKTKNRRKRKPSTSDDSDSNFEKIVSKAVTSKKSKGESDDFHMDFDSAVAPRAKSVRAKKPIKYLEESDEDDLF
Experimental: Second, the inhibitory activity of Topo IIα was evaluated for compounds 4a, 4b, 4e, 4i, and 4j utilising Human Topoisomerase II assay kit (TG1001, Topogen Inc.). […] The above results are compatible with our design of these hybrids as Top-II inhibitors.
The inhibitory activity of the selected ciprofloxacin hybrids on human Top-II was tested using a Human Topoisomerase II assay kit (TG1001, Topogen Inc.). In this assay, 1% agarose gel was used, and the compounds were tested at two different concentrations, 10 and 100 µM. Also, etoposide was used as a positive control in this experiment. The assay was performed according to the manufacturer’s protocol. The image of the electrophoretic gel was captured using an imaging system (iBright-CL1500, Thermo Fisher Scientific).

tubulin polymerisation = test: Tubulin immunofluorescence microscopy in HCT116 cells; assay type: cell-based, human; settings: HCT116, IC50 of compound, 36 h
Experimental: (§1) The process of tubulin polymerisation in the cells is important for the completion of mitosis and is targeted for cancer treatment. It has been reported that the suppression of tubulin polymerisation will arrest the cells at the G2/M and it eventually leads to cell death. To test the tubulin-disruptive effect of the CP hybrids, HCT116 cells were analysed by immunocytochemistry. HCT116 cells were incubated for 36 h with IC50 of the CP hybrids (4a, 4b, 4e, 4i, and 4j), nocodazole (a well-known tubulin polymerisation inhibitor, as a positive control), DMSO or Paclitaxel (a well-known tubulin polymerisation inducer, as a negative control), and tubulin was visualised by immunofluorescence microscopy. An antibody for α-tubulin was used. […] Moreover, a Western blot was performed to verify the tubulin polymerisation inhibition ability of the synthesised compounds (Figure 8(B)). The level of polymerised tubulin was decreased in HCT116 cells treated with IC50 values of CP hybrids 4a, 4b, 4e, 4i, 4j, or nocodazole.
(§2) HCT116 cells were cultured and treated with the IC50 of the potent compounds (4a, 4b, 4e, 4i, and 4j) or DMSO (control), fixed, permeabilized, and they were incubated with either γH2AX or α-tubulin antibody as the reported procedure in the literature. Confocal images were captured using a Confocal Microscope with a 63X objective. All images were processed using ImageJ software. See Supplementary Appendix A.

polymerised tubulin = test: Western blot of polymerised tubulin in HCT116 cells; assay type: cell-based, human; settings: HCT116, IC50 values of compounds
Experimental: as §1
(§3) Western blotting analysis for HCT116 cells was performed according to the reported procedure in the literature[77–79] to determine the effects of CP hybrids; 4a, 4b, 4e, 4i, and 4j on the expression of polymerised tubulin, γH2AX, p-ATR, p-CHK1, and p-Cdc25C by using the appropriate antibody. See Supplementary Appendix A.

γH2AX [1] = test: γH2AX immunofluorescence in HCT116 cells; assay type: cell-based, human; settings: HCT116, IC50 of compound
Excerpt: (§4) DNA damage is a major reason for inhibiting proliferation and inducing cytotoxicity in cancer cells as well as the main downstream cascade for the Topo-I, Top-II, and tubulin polymerisation inhibition. The phosphorylation of the histone H2AX always occurs after DNA damage forming double-stranded breaks (DSBs). Therefore, we tested the capability of the potent prepared compounds to trigger DNA double strand breaks through detection of the phosphorylation of γH2AX using two different techniques, Immunofluorescence, and western blotting.
as §2

γH2AX [2] = test: γH2AX western blotting in HCT116 cells; assay type: cell-based, human; settings: HCT116, IC50 of compound, versus control cells
Excerpt: as §4, §3

HCT116 cells = test: Analysis of cell cycle distribution; assay type: cell-based, human; settings: HCT116, different concentrations, 24 h
Excerpt: Generally, the mammalian cells counteract the DNA damage by different mechanisms including the cell cycle arrest to allow the cell to repair the damage. There are 2 checkpoints that control DNA damage. The first checkpoint is at the G1/S transition while the other checkpoint is at the G2/M transition. To cover the mechanisms of the synthesised compounds in inhibiting cell proliferation, we analysed the distribution of cell cycle of HCT116 cells following the treatment with different doses of 4a, 4b, 4e, 4i, and 4j. […] See Supplementary Appendix A.

Row | SMILES | Topo-I catalytic activity, DNA relaxation (Human topoisomerase I) | Topo-II inhibitory activity (Topo IIα) | tubulin polymerisation, morphological changes by immunofluorescence (tubulin polymerisation) | level of polymerised tubulin, Western blot (polymerised tubulin) | γH2AX foci formation (γH2AX [1]) | γH2AX protein expression, western blotting (γH2AX [2]) | cell cycle distribution (HCT116 cells) | melting point
1 | O=C(/C=C/c1ccccc1)c1ccc(-n2cc(CN3CCN(c4cc5c(cc4F)c(=O)c(C(=O)O)cn5C4CC4)CC3)nn2)cc1 [Compound 4a, (E) 7-(4-((1–(4-Cinnamoylphenyl)-1H-1,2,3-triazol-4-yl)methyl)piperazin-1-yl)-1-cyclopropyl-6-fluoro-4-oxo-1,4-dihydroquinoline-3-carboxylic acid] | could inhibit Topo-I catalytic activity | stronger inhibitory activity than 4b, 4i, and ETO | significant tubulin polymerisation inhibition | decreased | induced γH2AX foci formation | increases in the γH2AX protein expression | induced G2/M phase cell cycle arrest in a concentration-dependent manner | 
2 | O=C(/C=C/c1cccc(Cl)c1)c1ccc(-n2cc(CN3CCN(c4cc5c(cc4F)c(=O)c(C(=O)O)cn5C4CC4)CC3)nn2)cc1 [Compound 4b, (E)-7-(4-((1–(4-(3-(3-chlorophenyl)acryloyl)phenyl)-1H-1,2,3-triazol-4-yl)methyl)piperazin-1-yl)-1-cyclopropyl-6-fluoro-4-oxo-1,4-dihydroquinoline-3-carboxylic acid] | could inhibit Topo-I catalytic activity |  | significant tubulin polymerisation inhibition | decreased | induced γH2AX foci formation | increases in the γH2AX protein expression | induced G2/M phase cell cycle arrest in a concentration-dependent manner | 
3 | O=C(/C=C/c1ccc(Cl)cc1)c1ccc(-n2cc(CN3CCN(c4cc5c(cc4F)c(=O)c(C(=O)O)cn5C4CC4)CC3)nn2)cc1 [Compound 4c, (E)-7-(4-((1-(4-(3-(4-chlorophenyl)acryloyl)phenyl)-1H-1,2,3-triazol-4-yl)methyl)piperazin-1-yl)-1-cyclopropyl-6-fluoro-4-oxo-1,4-dihydroquinoline-3-carboxylic acid] |  |  |  |  |  |  |  | 257 to 259 °C
4 | O=C(/C=C/c1ccc(Br)cc1)c1ccc(-n2cc(CN3CCN(c4cc5c(cc4F)c(=O)c(C(=O)O)cn5C4CC4)CC3)nn2)cc1 [Compound 4d, (E)-7-(4-((1-(4-(3-(4-bromophenyl)acryloyl)phenyl)-1H-1,2,3-triazol-4-yl)methyl)piperazin-1-yl)-1-cyclopropyl-6-fluoro-4-oxo-1,4-dihydroquinoline-3-carboxylic acid] |  |  |  |  |  |  |  | 247 to 249 °C
5 | Cc1ccc(/C=C/C(=O)c2ccc(-n3cc(CN4CCN(c5cc6c(cc5F)c(=O)c(C(=O)O)cn6C5CC5)CC4)nn3)cc2)cc1 [Compound 4f, (E)-1-cyclopropyl-6-fluoro-4-oxo-7-(4-((1-(4-(3-(p-tolyl)acryloyl)phenyl)-1H-1,2,3-triazol-4-yl)methyl)piperazin-1-yl)-1,4-dihydroquinoline-3-carboxylic acid] |  |  |  |  |  |  |  | 259 to 261 °C
6 | COc1ccc(/C=C/C(=O)c2ccc(-n3cc(CN4CCN(c5cc6c(cc5F)c(=O)c(C(=O)O)cn6C5CC5)CC4)nn3)cc2)cc1 [Compound 4g, (E)-1-Cyclopropyl-6-fluoro-7-(4-((1-(4-(3-(4-methoxyphenyl)acryloyl)phenyl)-1H-1,2,3-triazol-4-yl)methyl)piperazin-1-yl)-4-oxo-1,4-dihydroquinoline-3-carboxylic acid] |  |  |  |  |  |  |  | 254 to 257 °C
7 | CN(C)c1ccc(/C=C/C(=O)c2ccc(-n3cc(CN4CCN(c5cc6c(cc5F)c(=O)c(C(=O)O)cn6C5CC5)CC4)nn3)cc2)cc1 [Compound 4h, (E)-1-cyclopropyl-7–(4-((1–(4-(3-(4-(dimethylamino)phenyl)acryloyl)phenyl)-1H-1,2,3-triazol-4-yl)methyl)piperazin-1-yl)-6-fluoro-4-oxo-1,4-dihydroquinoline-3-carboxylic acid] |  |  |  |  |  |  |  | 177 to 179 °C
8 | COc1ccc(/C=C/C(=O)c2ccc(-n3cc(CN4CCN(c5cc6c(cc5F)c(=O)c(C(=O)O)cn6C5CC5)CC4)nn3)cc2)cc1OC [Compound 4i, (E)-1-cyclopropyl-7-(4-((1-(4-(3–(3,4-dimethoxyphenyl)acryloyl)phenyl)-1H-1,2,3-triazol-4-yl)methyl)piperazin-1-yl)-6-fluoro-4-oxo-1,4-dihydroquinoline-3-carboxylic acid] | could inhibit Topo-I catalytic activity |  | significant tubulin polymerisation inhibition | decreased | induced γH2AX foci formation | increases in the γH2AX protein expression | induced G2/M phase cell cycle arrest in a concentration-dependent manner | 
